In US20050019836A1, “Bioanalytical reagent, method for production thereof, sensor platforms and detection methods based on use of said bioanalytical reagent” (priority 2000, published 2005):
Values belong to the compound of their own block, whether it stands above or below them.

Tests used:
5HT3A receptor [1] = target: T1, 5HT3A receptor (Mus musculus, UniProt P23979); assay: competitive radiological binding assay with [3H]-GR65630, receptor in whole mother cells
T1 construct: Transient expression of the full wild-type receptor was achieved by co-transfection; expressed in transfected cells; host or cells: HEK293
T1 sequence (P23979 24-489): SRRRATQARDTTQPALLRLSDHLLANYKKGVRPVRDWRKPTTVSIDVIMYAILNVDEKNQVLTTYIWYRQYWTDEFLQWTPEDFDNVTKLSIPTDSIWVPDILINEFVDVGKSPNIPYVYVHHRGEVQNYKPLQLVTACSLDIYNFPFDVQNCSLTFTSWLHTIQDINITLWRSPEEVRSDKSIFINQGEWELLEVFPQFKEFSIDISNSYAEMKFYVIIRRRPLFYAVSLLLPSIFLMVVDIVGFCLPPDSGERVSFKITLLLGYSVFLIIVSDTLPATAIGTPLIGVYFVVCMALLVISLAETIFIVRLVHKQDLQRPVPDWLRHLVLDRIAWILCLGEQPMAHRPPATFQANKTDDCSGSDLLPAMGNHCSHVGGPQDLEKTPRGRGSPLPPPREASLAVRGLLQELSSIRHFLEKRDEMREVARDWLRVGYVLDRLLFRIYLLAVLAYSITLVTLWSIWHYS

5HT3A receptor [2] = target: T1, 5HT3A receptor; assay: competitive radiological binding assay with [3H]-GR65630, receptor in "native" vesicles in solution
Procedure: To this end, samples of said reagent were incubated with the vesicles in solution for 60 minutes at room temperature with 1.5 nM of the tritium-labeled ligand [^3H]-GR65630 in 240 μl HEPES buffer (10 mM HEPES, pH 7.4) (HEPES: 4-(2-hydroxyethyl)piperazine-1-ethanesulfonic acid) in 96-well MultiScreen plates (Millipore, F-Molsheim). The incubation was completed by rapid filtration followed by washing 3 times with 300 μl of ice-cold HEPES buffer each time. The filters were transferred to scintillation vessels and each taken up in 1 ml of Ultima Gold TM (Packard, meridan, USA). The radioactivity was measured using a TriCarb 2200CA liquid scintillation counter. The extent of nonspecific binding to the receptor and to the vesicles was estimated in the presence of a high surplus of quipazine (1 μM). The dissociation constant Kd was determined from Scatchard plots in 6 different concentrations of the ligand [^3H]-GR65630. […] All experiments were carried out in duplicate.

5HT3A receptor [3] = target: T1, 5HT3A receptor; assay: fluorescent ligand binding to surface-immobilized "native" vesicles (confocal fluorescence microscopy); conditions: individual discrete immobilized vesicles (n=3) from HEK293 cells; fit with Langmuir isotherm; read-out: dissociation constant Kd
Procedure: The ligand-binding experiments in surface-immobilized vesicles were carried out using the fluorescence-labeled ligand GR-Cy5. For these experiments, a homologous serotonin receptor construct 5HT3A was used that was expressed with an EGFP (Enhanced Green Fluorescent Protein, Clontech) fused at the end of a subunit. The prepared “native” vesicles were immobilized on cover glasses by means of physical adsorption of the vesicles to the glasses, by two-hour or overnight incubation of typically 400 μl of a vesicle preparation solution prepared according to the above method in 6-well plates with cover glasses on the bottom at 4° C. […]
The affinity of the fluorescent ligand for receptors bound to individual, discrete vesicles was determined by sequential addition of ascending concentrations of the fluorescent ligand to one and the same cover glass with vesicles immobilized thereon by overnight incubation. […]
The fluorescence intensities of the ligand were measured with a confocal fluorescence microscope (Zeiss, Laser Scanning Microscope LSM510), using a suitable filter set. The fluorescence signal of the GFP additionally incorporated into the vesicles was used in each case to adjust the microscope to the working distance of the plane in which the vesicles lay before the ligand was added. […]

5HT3A serotonin receptor = target: T2, 5HT3A serotonin receptor (Mus musculus, UniProt P23979); assay: agonist-induced calcium signal (Fluo-3) in "native" vesicles with incorporated 5HT3A receptor; type: cell-based; conditions: 350 μM agonist; Fluo-3 loaded vesicles
T2 construct: expressed in transfected cells; host or cells: HEK cells
T2 sequence (P23979 24-489): T1 sequence (P23979 24-489)
Procedure: In this case, the original HEK cells from which the vesicles were obtained following the addition of cytochalasin according to the method described hereinabove were loaded with the acetoxymethyl ester of Fluo-3 as calcium indicator (generally 20 μg Fluo-3 in 500 μl DMEM/F12 medium). The prepared vesicles contained said fluorescent calcium indicator and parts of the endoplasmic reticulum in addition to the 5HT3A receptor.
Fluorescence excitation of the Fluo-3 was performed at 488 nm. The emission was measured at 500-530 nm. The vesicles loaded with Fluo-3 were then stimulated with 350 μM m-chlorophenylbiguanide hydrochloride (mCPG), a receptor-specific agonist. Stimulation was performed by addition of the agonist to the vesicle medium (t=0 sec). The maximum fluorescence signal that occurred through binding of the calcium to the calcium indicator Fluo-3 was already measured less than one minute after addition of the agonist. The value amounted to 35 μM free calcium ions in the vesicle interior, i.e. in the cytosol surrounded by the vesicle. With the aid of calcium indicator Fluo-3, free calcium ions are detected only in the cytosol (vesicle lumen) transferred from the cell of origin. Calcium ions in the endoplasmic reticulum or in other cell organelles or parts of cell organelles possibly included in the vesicle are not determined by this detection method.
The increase in the fluorescence signal up to its maximum value after less than one minute and the subsequent decrease in the fluorescence signal to its baseline value after a further 2 minutes, i.e. after a total of 3 minutes following addition of the agonist, is a sign of the intact functional capacity of the complete mechanism of the signal transduction cascade within the vesicle, i.e. of the ability of the vesicle to “buffer” the concentration of free calcium ions. This includes the action of sodium-calcium exchangers, in addition to the timespan until closure of the receptor's ion channel and desensitization mechanisms characteristic of serotonin.

[4] = HEK293 mother cells, competition with 1.5 nM [3H]-GR65630, 60 min, room temperature
[5] = vesicles from HEK293 cells in solution, competition with 1.5 nM [3H]-GR65630, 60 min, room temperature
[6] = HEK293 mother cells, competition with 1.5 nM [3H]-GR65630, 60 min, room temperature, read-out: pKi, receptor in mother cell (converted)
[7] = vesicles from HEK293 cells in solution, competition with 1.5 nM [3H]-GR65630, 60 min, room temperature, read-out: pKi, receptor in "native" vesicles (converted)

Ki (5HT3A receptor [1]; [6]): 0.501 nM | Ki (5HT3A receptor [2]; [7]): 0.398 nM
Compound: c1ccc2nc(N3CCNCC3)ccc2c1 [Quipazine, 2-(1-Piperazinyl)quinoline]

Ki (5HT3A receptor [1]; [6]): 316 nM | Ki (5HT3A receptor [2]; [7]): 251 nM
Compound: N=C(N)NC(=N)Nc1ccccc1 [PBG, Phenylbiguanide]

Kd (5HT3A receptor [3]): 4.2 nM
Compound: 1,2,3,9-tetrahydro-3-[(5-methyl-1H-imidazol-4-yl)methyl]-9-(3-amino-(N-rhodamineB-thiocarbamoyl)-propyl)-4H-carbazol-4-one [GR-Rho]

Ki (5HT3A receptor [1]): 3.16 nM | Ki (5HT3A receptor [2]): 2.51 nM
Compound: Cc1nccn1CC1CCc2c(c3ccccc3n2C)C1=O (stereo not shown) [Ondansetron, 1,2,3,9-tetrahydro-9-methyl-3-[(2-methyl-1H-imidazol-1-yl)methyl]-4H-carbazol-4-one]

Second part, the compound before the results:

Compound: Cc1[nH]cnc1CCC(=O)c1cn(C)c2ccccc12 [[^3H]-GR65630]
pKi, receptor in mother cell (5HT3A receptor [1]; [4]): 9.0 ± 0.1 | pKi, receptor in "native" vesicles (5HT3A receptor [2]; [5]): 9.4 ± 0.1

Compound: N=C(N)NC(=N)Nc1cccc(Cl)c1 [mCPBG, m-Chlorophenylbiguanide]
pKi, receptor in mother cell (5HT3A receptor [1]; [4]): 8.2 ± 0.1 | pKi, receptor in "native" vesicles (5HT3A receptor [2]; [5]): 8.3 ± 0.1

Compound: Cc1[nH]cnc1CC1CCc2c(c3ccccc3n2CCCN)C1=O (stereo not shown) [GR-H]
Ki (5HT3A receptor [1]): 0.0631 nM | Ki (5HT3A receptor [2]): 0.2 nM

Compound: Cl.N=C(N)NC(=N)Nc1cccc(Cl)c1 [mCPG, m-chlorophenylbiguanide hydrochloride]
free calcium ions in the vesicle interior at maximum fluorescence signal (5HT3A serotonin receptor): 35 µM | time to maximum fluorescence signal after addition of the agonist (5HT3A serotonin receptor): less than one | total time until decrease of fluorescence signal to baseline value after addition of the agonist (5HT3A serotonin receptor): 3 min
